Measured values: ChEMBL document CHEMBL4725267, “Design and synthesis of potent inhibitors of bc complex based on natural product neopeltolide” (Bioorg Med Chem Lett, 2020)

Assays:
Sus scrofa [1] = organism: Sus scrofa; experiment: (§1) Inhibition of porcine heart Succinate-cytochrome c reductase complex 2 by measuring decrease in DCIP at 10 uM relative to control; format: tissue-based
[2] = Inhibition of bovine heart mitochondrial cytochrome bc1 complex; format: mitochondria, Bos taurus, Mitochondria
Sus scrofa [3] = organism: Sus scrofa; experiment: Inhibition of porcine heart Succinate-cytochrome c reductase complex 2 by measuring decrease in DCIP at 1 uM relative to control; format: tissue-based
[4] = Inhibition of porcine heart Succinate-cytochrome c reductase complex 2 by measuring decrease in DCIP; format: tissue-based, Sus scrofa
[5] = as §1; format: tissue-based, Sus scrofa

| Compound | inhibition (Sus scrofa [1]) | also measured |
| --- | --- | --- |
| CCn1cc(Cl)c2c(COC(=O)c3coc(/C=C\CNC(=O)OC)n3)cccc21 | < 10% | – |
| CCC[C@H]1C[C@@H](OC)C[C@H](C)C[C@@H]2C[C@@H](OC(=O)/C=C\CCc3coc(/C=C\CNC(=O)OC)n3)C[C@H](CC(=O)O1)O2 | – | IC50 [2]: 0.002 µM |
| C=CCn1cc(Cl)c2c(COC(=O)c3coc(/C=C\CNC(=O)OC)n3)cccc21 | 21% | – |
| COC(=O)NC/C=C\c1nc(C(=O)Nc2cccc3c2ccn3Cc2ccc(C)cc2)co1 | – | inhibition (Sus scrofa [3]): 55% |
| COC(=O)NC/C=C\c1nc(C(=O)OCc2cccc3c2c(Cl)cn3Cc2ccccc2Cl)co1 | 31% | – |
| COC(=O)NC/C=C\c1nc(C(=O)OCc2cccc3c2c(Cl)cn3Cc2cccc(Cl)c2)co1 | 23% | – |
| COC(=O)NC/C=C\c1nc(C(=O)Nc2cccc3c2ccn3Cc2ccccc2C)co1 | – | inhibition (Sus scrofa [3]): 65% |
| COC(=O)NC/C=C\c1nc(C(=O)OCc2cccc3c2c(Cl)cn3Cc2ccccc2F)co1 | 50% | – |
| COC(=O)NC/C=C\c1nc(C(=O)OCc2cccc3c2c(Cl)cn3Cc2cccc(Br)c2)co1 | 34% | – |
| COC(=O)NC/C=C\c1nc(C(=O)OCc2cccc3c2c(Cl)cn3Cc2ccc(Br)cc2)co1 | 14% | – |
| COC(=O)NC/C=C\c1nc(C(=O)OCc2cccc3c2c(Cl)cn3Cc2ccc(Cl)cc2)co1 | 31% | – |
| COC(=O)NC/C=C\c1nc(C(=O)OCc2cccc3c2c(Cl)cn3Cc2ccccc2Br)co1 | 33% | – |
| COC(=O)NC/C=C\c1nc(C(=O)Nc2cccc3c2ccn3Cc2ccccc2F)co1 | – | IC50 [4]: 1.34 µM |
| COC(=O)NC/C=C\c1nc(C(=O)OCc2cccc3c2c(Cl)cn3Cc2ccc(C)cc2)co1 | 11% | – |
| COC(=O)NC/C=C\c1nc(C(=O)OCc2cccc3c2c(Cl)cn3Cc2ccccc2C)co1 | 47% | – |
| COC(=O)NC/C=C\c1nc(C(=O)OCc2cccc3c2c(Cl)cn3Cc2cccc(F)c2)co1 | 32% | – |
| COC(=O)NC/C=C\c1nc(C(=O)OCc2cccc3c2c(Cl)cn3Cc2cc(C)cc(C)c2)co1 | 27% | – |
| COC(=O)NC/C=C\c1nc(C(=O)OCc2cccc3c2c(Cl)cn3Cc2ccc(F)cc2)co1 | 46% | – |
| COC(=O)NC/C=C\c1nc(C(=O)Nc2cccc3c2ccn3Cc2cccc(C)c2)co1 | – | IC50 [4]: 0.7 µM |
| COC(=O)NC/C=C\c1nc(C(=O)OCc2cccc3c2c(Cl)cn3Cc2ccccc2)co1 | 41% | – |
| COC(=O)NC/C=C\c1nc(C(=O)Nc2cccc3c2ccn3Cc2cccc(F)c2)co1 | – | IC50 [4]: 1.75 µM |
| COC(=O)NC/C=C\c1nc(C(=O)OCc2cccc3c2c(Cl)cn3C)co1 | < 10% | – |
| COC(=O)NC/C=C\c1nc(C(=O)OCc2cccc3c2c(Cl)cn3Cc2cccc(C)c2)co1 | 49% | – |
| CO/C=C(/C(=O)OC)c1ccccc1Oc1cc(Oc2ccccc2C#N)ncn1 [AZOXYSTROBIN] | – | IC50 [5]: 0.7 µM |
| COC(=O)NC/C=C\c1nc(C(=O)OCc2cccc3[nH]cc(Cl)c23)co1 | 12% | – |
| CCCn1cc(Cl)c2c(COC(=O)c3coc(/C=C\CNC(=O)OC)n3)cccc21 | 24% | – |
| COC(=O)NC/C=C\c1nc(C(=O)OCc2cccc3c2c(Cl)cn3Cc2ccc(F)cc2F)co1 | 46% | – |
| C#CCn1cc(Cl)c2c(COC(=O)c3coc(/C=C\CNC(=O)OC)n3)cccc21 | 25% | – |
| COC(=O)NC/C=C\c1nc(C(=O)Nc2cccc3c2ccn3Cc2ccc(F)cc2)co1 | – | IC50 [4]: 1.46 µM |
